≈ marks a conversion by molar mass, not a printed value.
Columns and labels:
Experiment in all cases: microbe, parasite or virus in culture
E. coli ATCC 35218 = settings: E. coli 35218
Procedure, shortened: (§1)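 Peptides tested 0.25–128 μg/mL (2-fold dilutions, TFA/BSA carrier) against 1 × 10⁵ CFU/mL inoculum in CAMHB, duplicates.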

[1] = tested on: K. pneumoniae ATCC 700603; settings: K. pneumoniae 700603
Procedure, shortened: as §1

K. pneumoniae ATCC 13883 = settings: K. pneumoniae 13883
Procedure, shortened: as §1

E. faecium ATCC 19434 = settings: E. faecium 19434
Procedure, shortened: as §1

P. aeruginosa MRSN 5519 = settings: P. aeruginosa 5519
Procedure, shortened: as §1

P. aeruginosa ATCC 27853 = settings: P. aeruginosa 27853
Procedure, shortened: as §1

A. baumannii ATCC 19606 = settings: A. baumannii 19606
Procedure, shortened: as §1

S. aureus ATCC 43300 = settings: S. aureus 43300
Procedure, shortened: as §1

S. aureus ATCC 25923 = settings: S. aureus 25923
Procedure, shortened: as §1

E. faecium ATCC 49224 = settings: E. faecium 49224
Procedure, shortened: as §1

P. aeruginosa PA01 (Si) = type: cell-based; settings: P. aeruginosa PA01 (Si), not typical ESKAPEE strain
Excerpt: Supplement 41522_2025_837_MOESM13_ESM.xlsx, sheet "Table_S13_ESKAPEE-MIC" | column: Bacterial MIC (µg/mL)

P. aeruginosa PA01 = type: cell-based
Procedure, shortened: as §1

[2] = CAMHB, 1 × 10⁵ CFU/mL, 0.25 to 128 μg/mL, 37 °C 20 h, duplicate, read visually (CLSI)

For `CC[C@H](C)[C@H](NC(=O)[C@H](CCCCN)NC(=O)[C@H](CCC(=O)O)NC(=O)[C@H](CCCCN)NC(=O)[C@H](CO)NC(=O)[C@H](CCCCN)NC(=O)[C@H](CCCNC(=N)N)NC(=O)[C@H](Cc1ccccc1)NC(=O)[C@H](Cc1ccccc1)NC(=O)[C@H](CC(=O)O)NC(=O)CNC(=O)[C@H](CC(C)C)NC(=O)[C@@H](N)CC(C)C)C(=O)NCC(=O)N[C@@H](CCCCN)C(=O)N[C@@H](CCC(=O)O)C(=O)N[C@@H](Cc1ccccc1)C(=O)N[C@@H](CCCCN)C(=O)N[C@@H](CCCNC(=N)N)C(=O)N[C@H](C(=O)N[C@H](C(=O)N[C@@H](CCC(N)=O)C(=O)N[C@@H](CCCNC(=N)N)C(=O)N[C@H](C(=O)N[C@@H](CCCCN)C(=O)N[C@@H](CC(=O)O)C(=O)N[C@@H](Cc1ccccc1)C(=O)N[C@@H](CC(C)C)C(=O)N[C@@H](CCCNC(=N)N)C(=O)N[C@@H](CC(N)=O)C(=O)N[C@@H](CC(C)C)C(=O)N[C@H](C(=O)N1CCC[C@H]1C(=O)N[C@@H](CCCNC(=N)N)C(=O)N[C@H](C(=O)N[C@@H](CCC(=O)O)C(=O)N[C@@H](CO)C(=O)O)[C@@H](C)O)C(C)C)[C@@H](C)CC)C(C)C)[C@@H](C)CC` [LL-37, reference compound], the MIC (E. coli ATCC 35218; [2]) was 8 µg/mL (≈ 1.78 µM), the “Bacterial MIC” value (E. coli ATCC 35218; Week 2 (12/14/2023)) was 8 µg/mL and the MIC [1, 2] was 32 µg/mL (≈ 7.12 µM). For the same molecule, the “Bacterial MIC” value ([1]; Week 1 (12/6/2023)) was 32 µg/mL, the MIC (K. pneumoniae ATCC 13883; [2]) was 4 µg/mL (≈ 0.89 µM) and the “Bacterial MIC” value (K. pneumoniae ATCC 13883; Week 1 (12/6/2023)) was 4 µg/mL. For the same molecule, the “Bacterial MIC” value (K. pneumoniae ATCC 13883; Week 2 (12/14/2023)) was 8 µg/mL, the MIC (E. faecium ATCC 19434; [2]) was 32 µg/mL (≈ 7.12 µM) and the “Bacterial MIC” value (E. faecium ATCC 19434; Week 1 (12/6/2023)) was 32 µg/mL. For the same molecule, the “Bacterial MIC” value (E. faecium ATCC 19434; Week 2 (12/14/2023)) was 64 µg/mL, the MIC (P. aeruginosa MRSN 5519; [2]) was 16 µg/mL (≈ 3.56 µM) and the “Bacterial MIC” value (P. aeruginosa MRSN 5519; Week 1 (12/6/2023)) was 16 µg/mL. The “Bacterial MIC” value (P. aeruginosa MRSN 5519; Week 2 (12/14/2023)) was 16 µg/mL, the MIC (P. aeruginosa ATCC 27853; [2]) was 8 µg/mL (≈ 1.78 µM) and the “Bacterial MIC” value (P. aeruginosa ATCC 27853; Week 1 (12/6/2023)) was 8 µg/mL. For the same molecule, the “Bacterial MIC” value (P. aeruginosa ATCC 27853; Week 2 (12/14/2023)) was 8 µg/mL, the MIC (A. baumannii ATCC 19606; [2]) was 2 µg/mL (≈ 0.445 µM) and the “Bacterial MIC” value (A. baumannii ATCC 19606; Week 1 (12/6/2023)) was 2 µg/mL. For the same molecule, the MIC (S. aureus ATCC 43300; [2]) was >128 µg/mL, the “Bacterial MIC” value (S. aureus ATCC 43300; Week 1 (12/6/2023)) was >128.000 µg/mL and the “Bacterial MIC” value (S. aureus ATCC 43300; Week 2 (12/14/2023)) was >128.000 µg/mL. For the same molecule, the MIC (S. aureus ATCC 25923; [2]) was >128 µg/mL, the “Bacterial MIC” value (S. aureus ATCC 25923; Week 1 (12/6/2023)) was >128.000 µg/mL and the “Bacterial MIC” value (S. aureus ATCC 25923; Week 2 (12/14/2023)) was >128.000 µg/mL. For the same molecule, the MIC (E. faecium ATCC 49224; [2]) was 32 µg/mL (≈ 7.12 µM), the “Bacterial MIC” value (E. faecium ATCC 49224; Week 1 (12/6/2023)) was 32 µg/mL and the “Bacterial MIC” value (E. faecium ATCC 49224; Week 2 (12/14/2023)) was 64 µg/mL. For the same molecule, the “Bacterial MIC” value (P. aeruginosa PA01 (Si); Week 1 (12/6/2023)) was 4 µg/mL, the “Bacterial MIC” value (P. aeruginosa PA01 (Si); Week 2 (12/14/2023)) was 4 to 8 µg/mL and the “Bacterial MIC” value (P. aeruginosa PA01; P. aeruginosa 15692 (PAO1), Week 2 (12/14/2023)) was 16 µg/mL. The MIC (P. aeruginosa PA01; P. aeruginosa PA01, CAMHB, 1 × 10⁵ CFU/mL, 0.25 to 128 μg/mL, 37 °C 20 h, duplicate, read visually (CLSI)) was 4 µg/mL (≈ 0.89 µM).
